Source: PubChem BioAssay AID328 (DTP/NCI, 2004)
Values joined by “and” are separate entries in the source; they are usually repeats but may differ in a detail not shown here. Equal entries are not always repeated. Toxic doses and inconclusive results are not listed. How the source made its calls: active means survival T/C of 150% or more; inactive means T/C below 125% in these data.

Tested on: BDF1 mice, P388 leukemia ip, median survival T/C
Assay: NCI In Vivo Anticancer Drug Screen. Data for tumor model P388 Leukemia (intraperitoneal) in B6D2F1 (BDF1) mice
Conditions: endpoint: median survival time, higher = longer survival
How it was run: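 In tumour-bearing mice, survival after compound treatment is set against the vehicle group and given as a quotient.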

[1] = dose: 100.0 mg/kg/injection, schedule: Q01DX009 (ip), vehicle: Klucel (hydroxypropylcellulose) (HPC)
[2] = dose: 100.0 mg/kg/injection, schedule: Q04DX003 (ip), vehicle: saline with Tween-80
[3] = dose: 200.0 mg/kg/injection, schedule: Q04DX003 (ip), vehicle: saline with Tween-80
[4] = dose: 400.0 mg/kg/injection, schedule: Q04DX003 (ip), vehicle: saline with Tween-80
[5] = dose: 25.0 mg/kg/injection, schedule: Q04DX003 (ip), vehicle: water
[6] = dose: 50.0 mg/kg/injection, schedule: Q04DX003 (ip), vehicle: water
[7] = dose: 100.0 mg/kg/injection, schedule: Q04DX003 (ip), vehicle: water
[8] = dose: 200.0 mg/kg/injection, schedule: Q01DX009 (ip), vehicle: saline with Tween-80
[9] = dose: 25.0 mg/kg/injection, schedule: Q01DX009 (ip), vehicle: saline with Tween-80
[10] = dose: 50.0 mg/kg/injection, schedule: Q01DX009 (ip), vehicle: saline with Tween-80
[11] = dose: 100.0 mg/kg/injection, schedule: Q01DX009 (ip), vehicle: saline with Tween-80

Measured: T/C

n1nc(Nc2nn[nH]n2)n[nH]1
inactive: dose: 50.0 mg/kg/injection, schedule: Q01DX009 (ip), vehicle: Klucel (hydroxypropylcellulose) (HPC) 90 % of control | [1] 107 % of control | dose: 200.0 mg/kg/injection, schedule: Q01DX009 (ip), vehicle: Klucel (hydroxypropylcellulose) (HPC) 110 % of control

CCCC(CC)C(C(=O)OCC)C1=NC(C)(C)CC(C)O1 (centres undefined)
inactive: dose: 12.5 mg/kg/injection, schedule: Q01DX001 (ip), vehicle: saline sonified 100 % of control | dose: 25.0 mg/kg/injection, schedule: Q01DX001 (ip), vehicle: saline sonified 100 % of control | dose: 50.0 mg/kg/injection, schedule: Q01DX001 (ip), vehicle: saline sonified 100 % of control

CSc1cccc(NC(C)=O)c1
inactive: [1] 95 % of control | [2] 104 % of control | [3] 100 % of control | dose: 400.0 mg/kg/injection, schedule: Q01DX009 (ip), vehicle: Klucel (hydroxypropylcellulose) (HPC) 95 % of control | [4] 109 % of control

COc1cccc(CN2CCCNCC2)c1
inactive: dose: 6.25 mg/kg/injection, schedule: Q04DX003 (ip), vehicle: water 92 % of control | dose: 12.5 mg/kg/injection, schedule: Q04DX003 (ip), vehicle: water 93 % of control | [5] 93 % of control | [6] 112 % of control | [7] 89 % of control

ClCCN(CCCl)c1cc(OCc2ccccc2)cc(OCc2ccccc2)c1
inactive: dose: 6.25 mg/kg/injection, schedule: Q01DX009 (ip), vehicle: water 91 % of control | dose: 12.5 mg/kg/injection, schedule: Q01DX009 (ip), vehicle: water 88 % of control | dose: 25.0 mg/kg/injection, schedule: Q01DX009 (ip), vehicle: water 86 % of control | [5] 91 % of control | dose: 50.0 mg/kg/injection, schedule: Q01DX009 (ip), vehicle: water 88 % of control | [6] 89 % of control | dose: 100.0 mg/kg/injection, schedule: Q01DX009 (ip), vehicle: water 98 % of control | [7] 121 % of control | dose: 200.0 mg/kg/injection, schedule: Q01DX009 (ip), vehicle: water 92 % of control and 97 % of control | dose: 200.0 mg/kg/injection, schedule: Q04DX003 (ip), vehicle: water 97 % of control | dose: 400.0 mg/kg/injection, schedule: Q04DX003 (ip), vehicle: water 89 % of control

COC(=O)C(Br)c1cccc(OC)c1 (centres undefined)
inactive: dose: 58.5 mg/kg/injection, schedule: Q01DX009 (ip), vehicle: saline with Tween-80 100 % of control | dose: 88.0 mg/kg/injection, schedule: Q01DX009 (ip), vehicle: saline with Tween-80 100 % of control | dose: 132.0 mg/kg/injection, schedule: Q01DX009 (ip), vehicle: saline with Tween-80 90 % of control | [8] 100 % of control and 120 % of control

C(=Nc1ccc(/C=C\c2ccnc3ccccc23)cc1)Nc1ccc(/C=C\c2ccnc3ccccc23)cc1
inactive: dose: 12.5 mg/kg/injection, schedule: Q01DX009 (ip), vehicle: saline with Tween-80 100 % of control | [9] 107 % of control | [10] 100 % of control | [8] 97 % of control

O=C1CCCCC1Oc1ccccc1 (centres undefined)
inactive: [11] 95 % of control | [2] 95 % of control | [8] 91 % of control | [3] 100 % of control | [4] 100 % of control

BrC1CC(Br)c2c1c1c(c3c2C(Br)CC3Br)C(Br)CC1Br (centres undefined)
inactive: [8] 90 % of control

CC(=O)Oc1c(Cl)c(Cl)c(C#N)c(Cl)c1C#N
inactive: [10] 111 % of control | [11] 122 % of control

O=c1ccc2c([nH]1)CCC2
inactive: [9] 86 % of control | dose: 25.0 mg/kg/injection, schedule: Q04DX003 (ip), vehicle: saline 100 % of control | [10] 90 % of control | dose: 50.0 mg/kg/injection, schedule: Q04DX003 (ip), vehicle: saline 95 % of control | [11] 95 % of control | dose: 100.0 mg/kg/injection, schedule: Q04DX003 (ip), vehicle: saline 100 % of control
